Test results from ChEMBL document CHEMBL6087390, “Pyridine and Pyrimidine hybrids as privileged scaffolds in antimalarial drug discovery: A recent development” (Bioorg Med Chem Lett, 2024).
In brackets after ≈: the same amount, converted by molar mass.

Experiments:
[1] = tested on: Plasmodium falciparum; assay: Antiplasmodial activity against Plasmodium falciparum K1; assay type: functional, organism-based
[2] = tested on: Plasmodium falciparum; assay: microbe, parasite or virus in culture; settings: 3D7, 72 h
[3] = tested on: Plasmodium falciparum; assay: microbe, parasite or virus in culture; settings: 3D7
Description: Antiplasmodial activity against Plasmodium falciparum 3D7

[4] = tested on: HepG2; assay: Cytotoxicity against human HepG2 cells assessed as reduction in cell viability measured for 48 hrs by SRB assay; assay type: functional
[5] = tested on: Plasmodium falciparum; assay: Antimalarial activity against Plasmodium falciparum 3D7 assessed as reduction in malarial growth measured after 48 hrs by SYBR green dye based analysis; assay type: functional, organism-based; settings: 3D7, 48 h
[6] = tested on: Plasmodium falciparum; assay: Antiplasmodial activity against multidrug resistant Plasmodium falciparum K1 assessed as reduction in parasite growth by [3H]-hypoxanthine incorporation assay; assay type: functional, organism-based
[7] = tested on: HepG2; assay: Cytotoxicity against human HepG2 cells assessed as reduction in cell viability measured for 48 hrs by MTT assay; assay type: functional
[8] = tested on: Plasmodium falciparum; assay: Antimalarial activity against Plasmodium falciparum RKL9; assay type: functional, organism-based
[9] = tested on: Plasmodium falciparum; assay: microbe, parasite or virus in culture; settings: 3D7, 48 h
[10] = tested on: Plasmodium falciparum; assay: Antimalarial activity against CQ-resistant Plasmodium falciparum Dd2; assay type: functional, organism-based
[11] = tested on: Plasmodium falciparum; assay type: functional, organism-based; settings: W2
[12] = Cytotoxicity against human MRC5 cells assessed as inhibition of cell growth incubated for 72 hrs by MTT assay; assay type: toxicity, cell-based
[13] = Cytotoxicity against african green monkey Vero cells assessed as cell viability measured after 48 hrs by MTT assay; assay type: toxicity, cell-based, Chlorocebus sabaeus; settings: chlorocebus sabaeus, time 48 hrs

CC(C)CC(CN1CCN(c2ncccn2)CC1)Nc1ccnc2cc(Cl)ccc12 (configuration not stated)
IC50 [1]: 352 nM
IC50 [2]: 460 nM

O=S(=O)(c1ccc(-n2cc(COc3ccc(I)cc3)nn2)cc1)N1CCN(c2ccccn2)CC1
IC50 [3]: 12 µg/mL

CCc1ccccc1N(C)C(=O)C(c1cccnc1)N(Cc1cccc(C(F)(F)F)c1)C1CC1 (configuration not stated)
CC50 [4]: > 30 µM

Cc1cc(C)nc(NS(=O)(=O)c2ccc(-n3cc(COc4cc5oc(=O)cc(C)c5cc4Cl)nn3)cc2)n1
IC50 [5]: 8.96 µM

CCc1ccccc1N(C)C(=O)C(c1cncnc1)N(Cc1cccc(C(F)(F)F)c1)C1CC1 (configuration not stated)
EC50 [6]: 570 nM
CC50 [7]: > 30 µM

COc1cc(-c2cc(-c3ccco3)nc(N)n2)ccc1OCc1ccccc1
IC50 [8]: 10.5 µg/mL (≈ 28.1 µM)
IC50 [9]: 20 µg/mL (≈ 53.6 µM)

O=S(=O)(c1ccc(-n2cc(COc3ccccc3)nn2)cc1)N1CCN(c2ccccn2)CC1
IC50 [3]: 48.5 µg/mL

Cc1cc(C)nc(NS(=O)(=O)c2ccc(-n3cc(COc4ccc5c(-c6ccccc6)c(C)c(=O)oc5c4)nn3)cc2)n1
IC50 [5]: > 67.3 µM

COc1ccc2nc(/C=C/c3ccncc3)cc(Cl)c2c1
IC50 [10]: 2540 nM

Cc1nn(-c2ccccc2)c(-n2cncn2)c1-c1cc(-c2ccc(F)cc2)nc2nc3ccccc3n12
IC50 [9]: 0.04 µg/mL (≈ 0.0822 µM)

COc1ccccc1C(=O)/C=C/c1ccccn1
IC50 [3]: 0.48 µg/mL

COc1ccc(C2c3c(C)n[nH]c3Oc3nc4oc(=O)c(C#N)c(N)c4c(N)c32)cc1OC (configuration not stated)
IC50 [3]: 0.96 µg/mL

Cc1cc(Nc2ccc(S(=O)(=O)Nc3ccc(F)cc3)cc2)n2nc(C(F)(F)F)nc2n1
IC50 [2]: 80 nM

COc1ccc2nc(/C=C/c3ccncc3)ccc2c1
IC50 [10]: > 10000 nM

Cc1ccc(-n2ncc3c(NCCCCN)ncnc32)cc1
IC50 [11]: 18.2 µM

O=S(=O)(c1ccc(-n2cc(COc3ccc(Cl)cc3)nn2)cc1)N1CCN(c2ccccn2)CC1
IC50 [3]: > 50 µg/mL

O=C(C(c1cccnc1)N(Cc1cccc(C(F)(F)F)c1)C1CC1)N1CCCCC1 (configuration not stated)
CC50 [4]: > 20 µM

Cc1ccccc1N(C)C(=O)C(c1cccnc1)N(Cc1cccc(SC(F)(F)F)c1)C1CC1 (configuration not stated)
CC50 [4]: > 30 µM

Cc1ccccc1N(C)C(=O)C(c1cncnc1)N(Cc1cccc(OC(F)(F)F)c1)C1CC1 (configuration not stated)
EC50 [6]: 590 nM
CC50 [7]: > 30 µM

O=C1CCCN1c1ccc(-n2nc3c(S(=O)(=O)N4CCOCC4)cccn3c2=O)cc1
IC50 [1]: 27800 nM
IC50 at 72 h [12]: > 64 µM

NCCCCNc1ncnc2c1cnn2-c1ccc(F)cc1
IC50 [11]: 21.6 µM

C[C@H]1[C@H](OC(=O)CCC(=O)O)O[C@@H]2O[C@@]3(C)CC[C@H]4[C@H](C)CC[C@@H]1[C@@]24OO3 [ARTESUNATE]
IC50 [2]: 1000 nM

CC/C=C\C/C=C\C/C=C\C/C=C\C/C=C\C/C=C\CCC(=O)O [DOCONEXENT]
IC50 [3]: 0.004 µM

O=C(N/N=C/c1cn(-c2ccc(Cl)cc2)nn1)c1ccncc1
IC50 [3]: 14.5 µM

COc1ccc2cc3[n+](cc2c1OCc1cn(-c2ccc(S(=O)(=O)N4CCN(c5ccccn5)CC4)cc2)nn1)CCc1cc2c(cc1-3)OCO2.[Cl-]
IC50 [3]: 1 µg/mL

O=[N+]([O-])c1ccc(OCc2cn(-c3ccc(S(=O)(=O)N4CCN(c5ccccn5)CC4)cc3)nn2)cc1
IC50 [3]: > 50 µg/mL

COc1cc(-c2cc(-c3cc(Cl)sc3Cl)nc(S)n2)ccc1OCc1ccccc1
IC50 [8]: 6.1 µg/mL (≈ 12.8 µM)
IC50 [9]: 9.9 µg/mL (≈ 20.8 µM)

COc1cc(-c2cc(-c3ccco3)nc(S)n2)ccc1OCc1ccccc1
IC50 [8]: 5.4 µg/mL (≈ 13.8 µM)
IC50 [9]: 12.2 µg/mL (≈ 31.2 µM)

O=c1n(-c2cccc(Cl)c2)nc2c(S(=O)(=O)N3CCCCC3)cccn12
IC50 [1]: 2240 nM
IC50 at 72 h [12]: > 64 µM

C(=C\c1cn(-c2ccccc2)nc1-c1ccccc1)/c1nnc(-c2ccncc2)o1
IC50 [8]: 0.8 µg/mL (≈ 2.04 µM)
IC50 [5]: 0.5 µg/mL

Cc1cc(=O)oc2cc(OCc3cn(-c4ccc(S(=O)(=O)N5CCN(c6ccccn6)CC5)cc4)nn3)ccc12
IC50 [3]: > 71.7 µg/mL

Cc1nn(-c2ccccc2)c(-n2ccnc2)c1-c1cc(-c2cccs2)nc2nc3ccccc3n12
IC50 [9]: 1.75 µg/mL (≈ 3.7 µM)

Cc1n[nH]c2c1C(c1ccc(Cl)cc1)c1c(nc3oc(=O)c(C#N)c(N)c3c1N)O2 (configuration not stated)
IC50 [3]: 0.84 µg/mL

CC(C)=CCC1=C(OCc2cn(-c3cccnc3)nn2)C(=O)c2ccccc2C1=O
CC50 at 48 h [13]: 1030 µM

Cc1nn(-c2ccccc2)c(-n2cncn2)c1-c1cc(-c2cc[nH]c2)nc2nc3ccccc3n12
IC50 [9]: 0.09 µg/mL (≈ 0.197 µM)

Cc1ccc(-n2ncc3c(NCCCCNS(=O)(=O)c4ccc(C)cc4)ncnc32)cc1
IC50 [11]: 12.2 µM

COc1ccc(-c2cc(-c3cc(Cl)sc3Cl)nc(N)n2)cc1OCc1ccccc1
IC50 [8]: 2.4 µg/mL (≈ 5.24 µM)
IC50 [9]: 5.4 µg/mL (≈ 11.8 µM)

O=C(N/N=C/c1cn(-c2ccccc2)nn1)c1ccncc1
IC50 [3]: 23.1 µM

Clc1ccc2c(NCCN3CCN(c4ncccn4)CC3)ccnc2c1
IC50 [1]: 277 nM
IC50 [2]: 108 nM

Cc1cc(=O)oc2cc(OCc3cn(-c4ccc(S(=O)(=O)N5CCN(c6ccccn6)CC5)cc4)nn3)c(Cl)cc12
IC50 [3]: 59.1 µg/mL

CC(C)=CCC1=C(OCc2cn(Cc3ccccn3)nn2)C(=O)c2ccccc2C1=O
CC50 at 48 h [13]: 658 µM
